Assay results published in article PMC12040169 (PLOS Biology, 2025).

experiment: in vitro; details: human, hela cells, % viability

Structure (SMILES)	viability at 28.5 h, 10 µM [%]
CC(C)C(=O)N1CC2(CCN(Cc3ccc(C(C)C)cc3)CC2)c2ccccc21 [CBK122702]	98.8
CNC(=O)CCc1ccccc1NC(=O)NCCSc1ncn[nH]1 [CBK307253]	89.9
CCCN1C(=O)c2ccc(C(=O)Nc3cc(C(=O)O)cc(C(=O)O)c3)cc2C1=O [CBK266441]	97
Cc1ccc(OC2(C(=O)N3CCCC3C(F)(F)F)CCNCC2)cc1 (stereo not drawn) [CBK307226]	82.5
c1ccc2oc(-c3cncc(NCCCN4CCOCC4)n3)cc2c1 [CBK066045]	92.9
Clc1ccccc1CN(CCCn1ccnc1)Cc1c[nH]cn1 [CBK282988]	100
CC12CCC(=O)N1CCCN2 (stereo not drawn) [CBK067102T]	94.5
O=C(O)c1sccc1S(=O)(=O)NCc1ccc(COCC(F)(F)F)cc1 [CBK296706]	110
Nc1ncc(-c2cccc(CO)c2)nc1N1CCOCC1 [CBK063406]	97.6
COc1ccc(CNC(=O)c2sc3ncnc(N(C)C4CCCCC4)c3c2C)cc1 [CBK294431]	78.9
Cc1ccc(CNc2oc(COc3ccc(Br)cc3)nc2C#N)cc1 [CBK074467]	99.5
COc1cc(CNc2cc(-c3ccccc3N(C)C)ncn2)cc(OC)c1OC [CBK037123]	93.1
Nc1ccc(-c2cncc(NCc3ccccc3)n2)cc1 [CBK065578]	109
OCc1ccccc1-c1nccnc1NCCc1cccnc1 [CBK037444]	94
O=C(CSc1nc[nH]n1)Nc1nsc(-c2ccc(Cl)cc2)n1 [CBK267273]	110
Cc1nc(S)[nH]c(=O)c1Cc1ccc(F)cc1 [CBK288456]	107
CN1CCN(C(=O)COc2ccc(S(=O)(=O)Nc3ccc(Cl)cc3)cc2)CC1 [CBK268248]	102
Cn1nc2c(cc1=O)CN(C(=O)c1ccc3cc[nH]c3c1)CC2 [CBK304343]	93.8

Structure (SMILES)	viability at 28.5 h, 10 µM [%]
CC1CCN(Cc2ccc(-c3nnn(CC(=O)NCc4ccc(O)cc4)n3)cc2)CC1 [CBK144156C]	90.9
Cc1ccc(C2CCCN2C(=O)c2ccc(=O)n(CC(=O)N(C)c3ccccc3)c2)cc1C (stereo not drawn) [CBK285653]	107
COc1cc(/C=C2/S/C(=N\c3ccccc3)NC2=O)ccc1OCc1ccccc1[N+](=O)[O-] [CBK262165]	88.4
Cc1cc(N2CCN(C(=O)CCc3ccco3)CC2)nc(C(C)C)n1 [CBK305367]	106
CC(Cn1cncn1)C(=O)N1CCC(CCc2ccccc2F)CC1 (stereo not drawn) [CBK281529]	96
CS(=O)(=O)c1ccc(-c2nc(N)cc3ccccc23)cc1 [CBK085724]	96.1
NCC(=O)Nc1ccc(Cl)c(Cl)c1 [CBK046317]	94.3
COc1cccc(CNCCO)c1OCc1ccccc1F [CBK266594C]	104
CCn1cc(S(=O)(=O)NC2(c3ccccc3)CCCC2)cn1 [CBK282767]	90.6
Cc1cc(C)n(CC(C)NC(=O)N2CCC(Oc3cccnc3)C2)n1 (stereo not drawn) [CBK305342]	92.1
Cn1c2c(c(=O)n(C)c1=O)[C@@H]1C(C[C@](O)(COCc3ccccc3)[C@H]1O)C1(CCC1)N2 (stereo partly drawn) [CBK303265]	116
N#Cc1cc(CN2CCCN(S(=O)(=O)c3ccc(C(=O)c4ccccc4)cc3)CC2)ccc1F [CBK062768]	109
CC1(C(=O)Nc2cnn(Cc3ccc(F)cc3)c2)CCCO1 (stereo not drawn) [CBK282585]	104
NC(=O)CC[n+]1ccc2ccccc2c1 [CBK022857C]	110
O=C(Cc1ccc(F)cc1)Nc1nc(-c2cccs2)cs1 [CBK287736]	82.3
Fc1cccc(COc2nc3ccccc3n3nnnc23)c1 [CBK288198]	114
CC1(C)CC(=O)c2cc(C(N)=O)c(=O)n(-c3ccc(Cl)cc3)c2C1 [CBK293936]	88.8
Cc1nccn1CCCn1cncc1-c1ccc2c(c1)CCCN2C [CBK282962]	93.1
